The values below come from US20100069504A1, “AMINOBENZOCYCLOHEPTENE DERIVATIVES, METHODS FOR PREPARING THE SAME AND USES THEREOF IN THERAPY” (UNIVERSITE DE HAUTE ALSACE, priority 2006, published 2010).

The target in series [1] is T1, cytosolic leucine aminopeptidase (LAPc) (EC3.4.11.1) (Bos taurus, UniProt P00727).
T1 construct: The LAPc enzymes from bovine livers; purchased Sigma Chemical Corporation; host or cells: bovine livers (tissue)
T1 sequence (P00727 1-519): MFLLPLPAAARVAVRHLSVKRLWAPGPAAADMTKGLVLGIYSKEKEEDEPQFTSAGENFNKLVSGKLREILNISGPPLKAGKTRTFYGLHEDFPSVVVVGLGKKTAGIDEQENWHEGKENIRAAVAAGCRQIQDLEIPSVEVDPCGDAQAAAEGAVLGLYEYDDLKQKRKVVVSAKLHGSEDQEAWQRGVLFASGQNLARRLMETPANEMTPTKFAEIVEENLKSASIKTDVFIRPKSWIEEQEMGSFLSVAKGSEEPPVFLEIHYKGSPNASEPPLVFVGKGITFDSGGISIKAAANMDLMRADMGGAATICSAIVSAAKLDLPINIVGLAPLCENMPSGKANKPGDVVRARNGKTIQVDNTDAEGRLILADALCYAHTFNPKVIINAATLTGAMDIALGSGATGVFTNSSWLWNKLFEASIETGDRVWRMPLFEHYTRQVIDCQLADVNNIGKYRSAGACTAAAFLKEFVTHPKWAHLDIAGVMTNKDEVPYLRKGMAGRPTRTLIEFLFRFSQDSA
The series can be described thus: LAPc inhibition, Ki by spectrophotometry (Dixon method). It counts as biochemical, bovine. The source says: (§1) LTA4H has an aminopeptidase type activity similar to AP-N and a very close substrate specificity. It is important for the AP-N inhibitory molecules neither to inhibit LTA4H nor aminopeptidases that contain a co-catalytic unit like LAPc.
(§2) The LAPc enzymes from bovine livers and AP-N from porcine livers are marketed by Sigma Chemical Corporation. The AP-N is purified in a soluble form according to the method described by Wacker, H., Lecky, P., Fischer E. H., Stein, E. A. Hely. Chim.
(§3) The kinetic studies are carried out at 30° C. and the reactions are started up by adding the enzymes in 1 mL of test medium: LAPc, 5 units in 10 mM Tris-HCl, 0.1 mM ZnCl2, 5 mM MnCl2, 1 M KCl, pH=8.0; AP-N, 25 mUnits in 10 mM Tris-HCl, pH=7.5 and LTA4H, 5 μg in 10 mM Tris-HCl, 0.1 mM KCl, pH=7.5.
(§4) All the inhibitory molecules are assessed as an hydrochloride and in racemic mixture.

The target of series [2] is T2, human recombinant leukotriene A4 hydrolase (LTA4H) (EC3.3.2.6) (Homo sapiens, UniProt P09960).
T2 sequence (P09960 1-611): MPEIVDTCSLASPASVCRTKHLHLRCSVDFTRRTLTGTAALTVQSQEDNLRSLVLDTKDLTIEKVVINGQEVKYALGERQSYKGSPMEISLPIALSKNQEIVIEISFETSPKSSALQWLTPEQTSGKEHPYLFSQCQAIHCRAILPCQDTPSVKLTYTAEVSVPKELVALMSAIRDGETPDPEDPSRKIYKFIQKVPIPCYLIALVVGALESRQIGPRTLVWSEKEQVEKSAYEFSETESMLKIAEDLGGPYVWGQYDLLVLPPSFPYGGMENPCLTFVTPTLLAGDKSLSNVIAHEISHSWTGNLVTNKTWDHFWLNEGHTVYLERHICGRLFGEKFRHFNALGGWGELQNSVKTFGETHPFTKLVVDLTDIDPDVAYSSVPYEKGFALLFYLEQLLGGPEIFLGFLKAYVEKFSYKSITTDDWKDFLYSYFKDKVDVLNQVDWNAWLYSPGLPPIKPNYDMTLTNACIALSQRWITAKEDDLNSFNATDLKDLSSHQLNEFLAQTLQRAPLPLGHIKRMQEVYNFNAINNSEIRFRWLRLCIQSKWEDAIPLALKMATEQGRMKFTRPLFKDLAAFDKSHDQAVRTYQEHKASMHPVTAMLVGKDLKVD
The series can be described thus: LTA4H aminopeptidase inhibition, Ki by spectrophotometry (Dixon method). The note with it: alanine para-nitroanilide substrate, 30° C., pH=7.5; hydrochloride, racemic mixture. The format is biochemical. Here is the method:
as §1, §3, §4

For the next series, the target named is T3, AP-N (EC3.4.11.2) (Sus scrofa, UniProt P15145).
T3 construct: The AP-N is purified in a soluble form according to the method described by Wacker; purchased Sigma Chemical Corporation; host or cells: porcine livers (tissue)
T3 sequence (P15145 33-963 limits assumed): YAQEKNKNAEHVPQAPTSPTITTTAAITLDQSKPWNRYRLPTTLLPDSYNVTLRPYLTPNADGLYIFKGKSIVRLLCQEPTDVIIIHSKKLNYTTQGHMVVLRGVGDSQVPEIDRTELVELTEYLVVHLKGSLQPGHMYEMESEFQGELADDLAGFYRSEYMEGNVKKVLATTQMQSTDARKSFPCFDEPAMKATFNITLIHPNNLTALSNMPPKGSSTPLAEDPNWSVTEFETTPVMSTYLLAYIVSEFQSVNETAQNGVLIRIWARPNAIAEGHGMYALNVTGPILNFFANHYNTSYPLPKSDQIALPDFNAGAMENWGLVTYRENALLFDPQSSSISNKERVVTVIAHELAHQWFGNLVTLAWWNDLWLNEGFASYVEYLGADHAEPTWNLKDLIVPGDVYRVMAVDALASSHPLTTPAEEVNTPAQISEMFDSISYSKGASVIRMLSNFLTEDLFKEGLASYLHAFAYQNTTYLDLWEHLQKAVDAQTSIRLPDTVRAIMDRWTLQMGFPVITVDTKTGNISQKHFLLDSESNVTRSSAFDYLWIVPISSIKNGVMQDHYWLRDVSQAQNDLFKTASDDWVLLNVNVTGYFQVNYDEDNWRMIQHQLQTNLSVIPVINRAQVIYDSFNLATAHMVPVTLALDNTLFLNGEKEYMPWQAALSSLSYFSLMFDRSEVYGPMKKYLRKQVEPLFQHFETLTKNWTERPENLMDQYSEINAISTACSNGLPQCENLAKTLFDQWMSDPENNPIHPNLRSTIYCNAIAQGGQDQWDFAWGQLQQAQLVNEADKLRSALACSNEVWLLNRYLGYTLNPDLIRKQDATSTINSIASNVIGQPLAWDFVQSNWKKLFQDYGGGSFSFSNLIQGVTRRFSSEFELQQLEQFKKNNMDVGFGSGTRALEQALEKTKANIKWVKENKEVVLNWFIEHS
In words: AP-N inhibitory activity, inhibition constant Ki by spectrophotometry (Dixon method). It counts as biochemical, porcine. As to conditions: L-leucine para-nitroanilide substrate, 30° C., pH=7.5; hydrochloride, racemic mixture.
Description: as §1, §2, §3, §4

A further series addresses T4, AP-N from porcine livers (Sus scrofa, UniProt P15145).
T4 construct: The AP-N is purified in a soluble form according to the method described by Wacker; purchased Sigma Chemical Corporation; host or cells: porcine livers (tissue)
T4 sequence (P15145 33-963 limits assumed): T3 sequence (P15145 33-963 limits assumed)
In words: Stability in aqueous solution, followed by AP-N inhibition over at least 10 hours. It counts as biochemical. The note with it: read-out: inhibition of AP-N throughout the test. Here is the method:
The enzymatic tests are carried out at 25° C. in 20 mM Tris-HCl, pH=7.5 with 0.2 mM L-leucine para-nitroanilide as a substrate, in a total reaction volume of 1 mL. […] The reaction is started up by adding 3 milliunits of AP-N from porcine livers.
Under these experimental conditions, the linear kinetics is monitored for at least 10 hours.

[3] abbreviates: L-leucine para-nitroanilide substrate, 30° C., pH=8.0, hydrochloride, racemic mixture, read-out: Ki (M) LAPc (EC3.4.11.1).

SMILES strings stand for the structures. Where a name gives a salt, the structure may show the parent alone. Read-outs that look alike come from different tables or passages of the source.

By melting point is commonly meant the temperature, or range, at which the solid turns liquid. In turn, `Cl.NC1CCc2ccccc2CC1=NO` (stereo not drawn) came in with a melting point of 270 to 280 °C.

The Ki is the dissociation constant of the complex between target and ligand, obtained from inhibition or displacement. What is called inhibition is the share of the control response that was lost under treatment. On to `Cl.NC1CCc2ccccc2CC1=O` (racemic) [EX 2, 7-amino-5,7,8,9-tetrahydro-benzocyclohepten-6-one hydrochloride], for which the inhibitory constant (Ki) was more than 0.001 M in series [1] (setting [3]), more than 1000 µM in series [2] and 1 µM at AP-N (EC3.4.11.2). For the same molecule, the inhibition at 200 µM at AP-N from porcine livers worked out at 50%.

For `NC1CCc2ccccc2C(F)C1=O` (racemic) [EX 3, 7-amino-5-fluoro-5,7,8,9-tetrahydro-benzocyclohepten-6-one hydrochloride], the inhibitory constant (Ki) in series [1] (setting [3]) is more than 0.001 M; in series [2], more than 1000 µM; at AP-N (EC3.4.11.2), 0.3 µM.

`Cl.NC1CCc2ccccc2C(CCCc2ccccc2)C1=O` (racemic) [EX 6, 5-phenylpropyl-7-amino-5,7,8,9-tetrahydro-benzocyclohepten-6-one hydrochloride] showed a melting point of 156 to 158 °C. In addition, the inhibitory constant (Ki) in series [1] (setting [3]) is more than 0.001 M. The inhibitory constant (Ki) in series [2] was more than 1000 µM. For the same molecule, the Ki on AP-N (EC3.4.11.2) turned out to be 12 µM.

On to `NC1CCc2cccc(-c3ccccc3)c2CC1=O` (racemic) [EX 7, 7-amino-4-phenyl-5,7,8,9-tetrahydro-benzocyclohepten-6-one hydrochloride], for which the Ki in series [1] (setting [3]) is 2e-05 M; in series [2], more than 1000 µM.

Consider `NC1CCc2ccccc2C(SCc2ccccc2)C1=O` (racemic) [EX 8, 5-benzylsulphanyl-7-amino-5,7,8,9-tetrahydro-benzocyclohepten-6-one hydrochloride], for which the values for the Ki (in series [1] (setting [3]); in series [2]; on AP-N (EC3.4.11.2)) were more than 0.001 M, more than 1000 µM and 0.08 µM, respectively.

With `NC1CCc2c(Br)cccc2CC1=O` (racemic) [EX 9, 7-amino-1-bromo-5,7,8,9-tetrahydro-benzocyclohepten-6-one hydrochloride], the Ki in series [1] (setting [3]) was more than 0.001 M; in series [2] it was more than 1000 µM.

`NC1Cc2ccccc2CC1=O` (racemic) [EX 10, 2-amino-3-tetralone, reference compound]: the Ki was 0.00012 M in series [1] and more than 1000 µM in series [2].
